For data set [1] the following is noted: list of typical surfactants; CMC measured in water at 20 to 25 degrees C; cited from earlier work.
Another data set has as its system feline calicivirus. The data set is described as follows: FCV (feline calicivirus, norovirus surrogate) log reduction. Format: cell-based. As to conditions: surfactant combined with Bardac 2050 quat. As for the experimental part: Variations of this formula were then tested against feline calicivirus, which is norovirus surrogate. Bardac 2050 by itself was the control.
Quat was tested with each surfactant alone to determine which surfactant was interfering. Also, Lonzabac 12 was added to one formula. Streak testing was performed on each formula. FCV (feline calicivirus) testing was done in 400 ppm hard water with a 10 minute contact time and soil.

In a further data set the test system is S. aureus. As to the kind of experiment: OECD method log reduction, S. aureus. Format: cell-based, Staphylococcus aureus. As to conditions: 400 ppm water; 750 ppm quat. As for the experimental part: The germicidal test methods referred to are those approved by the EPA for germicide registration in force at the time of the patent application. Staphylococcus aureus is the ATCC 6538 strain.
Formulas with passable or ok glass performance and formulas of interest were then tested for antimicrobial efficacy.
Four log reduction is considered passing for this method.

For the molecule `CCCCC(CC)CO[C@H]1O[C@H](CO)[C@@H](O)[C@H](O)[C@H]1O` (stereo partly drawn) [AG 6202, a-D-Glucopyranoside, 2-ethylhexyl], the “CMC (ppm)” value in data set [1] was 14000 ppm. Besides, the “FCV kill, result in words” value in the data set on feline calicivirus is “does not”. In the case of `CCCCCCCCCC[N+](C)(C)CCCCCCCCCC.[Cl-]` [Bardac 2250, Didecyldimethylammoniumchloride], in the data set with S. aureus, the “OECD log reduction Staph” value is 1.6 log.

As to `CCCCCCCCCCCC[N+](C)(C)[O-]` [Barlox 12, Lauryldimethyl amine oxide], the “FCV kill, result in words” value in the data set with feline calicivirus was “interferes with FCV kill”.
